Test results taken from ChEMBL document CHEMBL5543092, “Design, synthesis, and biological characterization of proteolysis targeting chimera (PROTACs) for the ataxia telangiectasia and RAD3-related (ATR) kinase” (Eur J Med Chem, 2024).
Activity calls are given as the source filed them. The calls are words filed in the database; no cut-off is given here.

Tests used:
[1] = target: T1, Protein cereblon/Serine/threonine-protein kinase ATR (Homo sapiens) (UniProt Q13535+Q96SW2); experiment: PROTAC activity at ATR/CRBN in patient derived human MIA PaCa-2 cells assessed as reduction in protein level at 2 uM measured after 3 hrs in presence of 50 nM bortezomib by immunoblot analysis; format: cell-based
T1 sequence (Q13535 whole entry, looked up): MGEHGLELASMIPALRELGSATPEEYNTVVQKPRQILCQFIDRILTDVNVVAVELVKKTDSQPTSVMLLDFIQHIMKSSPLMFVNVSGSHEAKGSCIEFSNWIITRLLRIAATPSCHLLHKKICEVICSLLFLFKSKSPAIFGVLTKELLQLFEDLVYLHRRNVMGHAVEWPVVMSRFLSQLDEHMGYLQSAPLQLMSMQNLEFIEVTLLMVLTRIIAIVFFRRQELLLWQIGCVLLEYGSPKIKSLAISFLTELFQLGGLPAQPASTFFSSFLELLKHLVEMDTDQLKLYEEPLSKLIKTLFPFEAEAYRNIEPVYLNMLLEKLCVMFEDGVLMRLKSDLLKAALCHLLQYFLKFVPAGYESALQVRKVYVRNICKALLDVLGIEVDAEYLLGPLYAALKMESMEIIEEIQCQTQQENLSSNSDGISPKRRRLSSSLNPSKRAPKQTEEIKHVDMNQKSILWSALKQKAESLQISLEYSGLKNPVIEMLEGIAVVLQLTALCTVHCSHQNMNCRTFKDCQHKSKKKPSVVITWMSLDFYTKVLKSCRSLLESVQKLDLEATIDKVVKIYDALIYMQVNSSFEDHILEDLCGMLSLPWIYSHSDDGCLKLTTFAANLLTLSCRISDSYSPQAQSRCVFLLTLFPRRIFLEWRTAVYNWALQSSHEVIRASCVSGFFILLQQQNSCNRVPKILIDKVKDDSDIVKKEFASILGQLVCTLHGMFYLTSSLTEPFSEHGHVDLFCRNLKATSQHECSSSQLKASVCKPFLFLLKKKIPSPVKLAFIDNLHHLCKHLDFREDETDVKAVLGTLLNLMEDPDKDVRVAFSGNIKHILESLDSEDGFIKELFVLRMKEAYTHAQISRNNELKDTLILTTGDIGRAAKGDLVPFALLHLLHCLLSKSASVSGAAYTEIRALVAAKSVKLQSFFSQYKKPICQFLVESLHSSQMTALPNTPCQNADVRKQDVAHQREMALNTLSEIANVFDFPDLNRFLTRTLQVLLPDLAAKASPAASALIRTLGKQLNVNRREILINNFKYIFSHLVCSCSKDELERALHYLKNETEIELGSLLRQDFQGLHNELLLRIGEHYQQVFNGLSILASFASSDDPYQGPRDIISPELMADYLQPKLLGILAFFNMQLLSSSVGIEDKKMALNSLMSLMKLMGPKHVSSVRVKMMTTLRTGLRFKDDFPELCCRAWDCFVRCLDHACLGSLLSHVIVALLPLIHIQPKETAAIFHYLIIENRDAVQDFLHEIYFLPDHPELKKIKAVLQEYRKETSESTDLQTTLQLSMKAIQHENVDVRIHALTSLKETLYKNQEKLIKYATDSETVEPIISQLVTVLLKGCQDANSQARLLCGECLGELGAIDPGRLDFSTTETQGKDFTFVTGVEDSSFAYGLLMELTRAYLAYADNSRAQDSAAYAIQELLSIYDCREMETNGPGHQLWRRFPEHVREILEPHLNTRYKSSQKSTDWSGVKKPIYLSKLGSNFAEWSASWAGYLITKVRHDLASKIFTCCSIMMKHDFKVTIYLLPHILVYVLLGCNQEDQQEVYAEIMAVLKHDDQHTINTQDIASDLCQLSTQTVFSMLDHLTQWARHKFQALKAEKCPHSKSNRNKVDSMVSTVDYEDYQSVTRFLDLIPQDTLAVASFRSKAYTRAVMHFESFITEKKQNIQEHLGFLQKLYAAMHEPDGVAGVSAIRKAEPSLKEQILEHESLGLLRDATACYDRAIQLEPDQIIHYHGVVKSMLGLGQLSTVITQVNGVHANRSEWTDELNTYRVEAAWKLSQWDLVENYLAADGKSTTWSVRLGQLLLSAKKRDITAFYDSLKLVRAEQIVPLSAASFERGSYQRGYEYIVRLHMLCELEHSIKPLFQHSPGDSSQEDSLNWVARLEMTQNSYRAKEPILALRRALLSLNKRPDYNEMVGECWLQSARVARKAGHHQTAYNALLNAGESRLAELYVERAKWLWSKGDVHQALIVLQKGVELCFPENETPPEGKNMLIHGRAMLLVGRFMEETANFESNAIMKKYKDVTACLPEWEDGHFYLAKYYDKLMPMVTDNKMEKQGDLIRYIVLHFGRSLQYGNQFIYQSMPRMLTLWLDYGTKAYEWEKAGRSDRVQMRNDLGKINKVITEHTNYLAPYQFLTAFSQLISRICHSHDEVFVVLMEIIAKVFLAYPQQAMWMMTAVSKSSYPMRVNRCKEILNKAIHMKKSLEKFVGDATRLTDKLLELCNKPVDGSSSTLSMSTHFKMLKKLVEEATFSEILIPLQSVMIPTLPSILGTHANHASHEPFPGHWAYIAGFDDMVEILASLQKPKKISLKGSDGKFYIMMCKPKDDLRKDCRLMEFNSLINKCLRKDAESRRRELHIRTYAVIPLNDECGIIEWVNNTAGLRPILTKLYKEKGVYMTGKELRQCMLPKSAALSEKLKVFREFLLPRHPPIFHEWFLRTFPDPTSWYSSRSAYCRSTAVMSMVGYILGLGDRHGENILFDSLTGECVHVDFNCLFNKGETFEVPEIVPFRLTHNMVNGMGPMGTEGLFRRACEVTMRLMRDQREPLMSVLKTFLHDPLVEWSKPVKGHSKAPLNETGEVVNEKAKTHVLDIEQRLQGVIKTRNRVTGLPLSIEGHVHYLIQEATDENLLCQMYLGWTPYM
T1 sequence (Q96SW2 whole entry, looked up): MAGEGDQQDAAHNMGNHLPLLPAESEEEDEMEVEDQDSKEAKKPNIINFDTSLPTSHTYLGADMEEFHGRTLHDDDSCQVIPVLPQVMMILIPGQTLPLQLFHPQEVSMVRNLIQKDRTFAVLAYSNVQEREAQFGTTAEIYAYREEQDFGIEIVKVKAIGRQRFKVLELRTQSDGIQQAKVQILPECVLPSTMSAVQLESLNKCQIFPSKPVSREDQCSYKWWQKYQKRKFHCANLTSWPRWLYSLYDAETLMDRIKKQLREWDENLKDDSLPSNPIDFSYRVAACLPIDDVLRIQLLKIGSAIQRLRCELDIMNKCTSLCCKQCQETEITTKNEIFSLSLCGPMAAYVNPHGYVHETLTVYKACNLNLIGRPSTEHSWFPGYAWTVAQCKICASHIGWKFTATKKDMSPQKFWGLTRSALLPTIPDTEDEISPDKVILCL

[2] = Chemical stability of the compound in at pH 7.4 measured at 12 hrs by HPLC based non-enzymatic stability assay; format: physicochemical; conditions: buffer, read-out: Stability
[3] = Plasma stability in human plasma assessed as compound remaining at 20 uM measured after 24 hrs by HPLC analysis; format: ADME, cell-free; conditions: read-out: Stability
[4] = Chemical stability of the compound in at pH 7.4 measured at 72 hrs by HPLC based non-enzymatic stability assay; format: physicochemical; conditions: buffer, read-out: Stability
[5] = target: T1, Protein cereblon/Serine/threonine-protein kinase ATR (Homo sapiens); experiment: PROTAC activity at ATR/CRBN in patient derived human MIA PaCa-2 cells assessed as reduction in protein level at 2 uM measured after 24 hrs by immunoblot analysis relative to untreated control; format: cell-based; parameters: scale not given: the % may be the effect or the level left
HeLa [6] = experiment: Effect on DNA-PKcs expression in human HeLa cells at 500 nM incubated for 24 hrs by immunoblot analysis; format: functional, cell-based
[7] = target: T1, Protein cereblon/Serine/threonine-protein kinase ATR (Homo sapiens); experiment: PROTAC activity at ATR/CRBN in patient derived human MIA PaCa-2 cells assessed as reduction in protein level at 2 uM measured after 24 hrs by immunoblot analysis relative to irinotecan; format: cell-based; parameters: scale not given: the % may be the effect or the level left
[8] = Chemical stability of the compound in at pH 7.4 measured at 48 hrs by HPLC based non-enzymatic stability assay; format: physicochemical; conditions: buffer, read-out: Stability
[9] = target: T1, Protein cereblon/Serine/threonine-protein kinase ATR (Homo sapiens); experiment: PROTAC activity at ATR/CRBN in patient derived human MIA PaCa-2 cells assessed as reduction in irinotecan-induced p-CHK1 (S345) level at 2 uM measured after 24 hrs by immunoblot analysis relative to control; format: cell-based
[10] = target: T1, Protein cereblon/Serine/threonine-protein kinase ATR (Homo sapiens); experiment: PROTAC activity at ATR/CRBN in patient derived human MIA PaCa-2 cells assessed as reduction in protein level at 2 uM measured after 3 hrs in presence of 10 uM MG132 by immunoblot analysis; format: cell-based
[11] = target: T1, Protein cereblon/Serine/threonine-protein kinase ATR (Homo sapiens); experiment: PROTAC activity at ATR/CRBN in patient derived human MIA PaCa-2 cells assessed as reduction in p-ATR (T1989) level at 2 uM measured after 24 hrs by immunoblot analysis relative to control; format: cell-based
HEK293 = experiment: Cytotoxicity against human HEK293 cells assessed as cell viability at 50 uM incubated for 24 hrs by Alamar Blue reagent based assay relative to control; format: functional; conditions: read-out: Activity
MIA PaCa-2 [12] = experiment: Induction of apoptosis in human MIA PaCa-2 cells assessed as cell death at 2 uM incubated for 24 hrs by Annexin-V/PI based flow cytometry; format: functional
ATR/ATRIP = ATR/ATRIP (Homo sapiens, UniProt Q13535); experiment: Inhibition of human ATR/ATRIP complex using GST-cMyc-p53 substrate measured after 30 mins by HTRF based non-radioactive in vitro assay; format: protein-complex assay
Sequence of ATR/ATRIP (Q13535 whole entry): as the sequence (Q13535 whole entry, looked up) above
Sequence of ATR/ATRIP (Q8WXE1 whole entry, further chain): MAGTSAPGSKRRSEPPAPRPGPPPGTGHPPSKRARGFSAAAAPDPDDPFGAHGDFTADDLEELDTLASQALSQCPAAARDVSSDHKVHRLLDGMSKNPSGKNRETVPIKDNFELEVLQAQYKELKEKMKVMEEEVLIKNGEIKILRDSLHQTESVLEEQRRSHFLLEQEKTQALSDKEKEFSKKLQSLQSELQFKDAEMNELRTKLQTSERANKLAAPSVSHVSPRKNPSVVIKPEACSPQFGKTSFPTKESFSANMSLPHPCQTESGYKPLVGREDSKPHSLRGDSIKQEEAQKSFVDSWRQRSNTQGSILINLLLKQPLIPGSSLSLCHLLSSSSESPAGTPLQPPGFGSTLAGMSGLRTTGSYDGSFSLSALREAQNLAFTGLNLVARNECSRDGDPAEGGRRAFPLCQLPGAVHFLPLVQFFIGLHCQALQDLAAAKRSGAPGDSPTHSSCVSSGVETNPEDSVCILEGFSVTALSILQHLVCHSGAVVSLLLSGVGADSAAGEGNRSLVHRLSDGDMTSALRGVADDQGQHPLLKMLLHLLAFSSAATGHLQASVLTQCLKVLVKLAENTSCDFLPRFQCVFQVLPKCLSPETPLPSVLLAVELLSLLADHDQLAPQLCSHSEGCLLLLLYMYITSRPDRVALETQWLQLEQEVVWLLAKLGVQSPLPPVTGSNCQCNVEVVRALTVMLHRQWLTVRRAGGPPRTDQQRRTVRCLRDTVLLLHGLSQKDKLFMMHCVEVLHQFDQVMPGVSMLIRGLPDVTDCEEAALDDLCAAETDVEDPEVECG

MIA PaCa-2 [13] = experiment: Effect on GSPT1 expression in human MIA PaCa-2 cells at 0.5 to 2 uM incubated for 24 hrs by immunoblot analysis; format: functional, cell-based; conditions: dose 0.5-2 µM
[14] = Chemical stability of the compound in at pH 7.4 measured at 24 hrs by HPLC based non-enzymatic stability assay; format: physicochemical; conditions: buffer, read-out: Stability
[15] = target: T1, Protein cereblon/Serine/threonine-protein kinase ATR (Homo sapiens); experiment: PROTAC activity at ATR/CRBN in patient derived human MIA PaCa-2 cells assessed as reduction in protein level at 500 nM measured after 24 hrs by immunoblot analysis relative to untreated control; format: cell-based; parameters: scale not given: the % may be the effect or the level left
HeLa [16] = experiment: Effect on ATM expression in human HeLa cells at 500 nM incubated for 24 hrs by immunoblot analysis; format: functional, cell-based
[17] = Chemical stability of the compound in at pH 7.4 measured at 6 hrs by HPLC based non-enzymatic stability assay; format: physicochemical; conditions: buffer, read-out: Stability
[18] = Plasma protein binding in human plasma; format: ADME, cell-free; conditions: read-out: PPB (converted)
[19] = target: T1, Protein cereblon/Serine/threonine-protein kinase ATR (Homo sapiens); experiment: PROTAC activity at ATR/CRBN in human HeLa cells assessed as reduction in p-ATR level at 500 nM measured after 24 hrs by immunoblot analysis relative to untreated control; format: cell-based; parameters: scale not given: the % may be the effect or the level left
MIA PaCa-2 [20] = experiment: Effect on CRBN expression in patient derived siCRBN transfected human MIA PaCa-2 cells at 2 uM measured after 24 hrs by immunoblot analysis; format: functional, cell-based
[21] = target: T1, Protein cereblon/Serine/threonine-protein kinase ATR (Homo sapiens); experiment: PROTAC activity at ATR/CRBN in human HeLa cells assessed as reduction in protein level at 500 nM measured after 24 hrs by immunoblot analysis relative to untreated control; format: cell-based; parameters: scale not given: the % may be the effect or the level left

- Activity [1]: inactive
- remaining at 12 h [2]: 104%
- remaining at 24 h, 20 µM [3]: 75%
- remaining at 72 h [4]: 115%
- Activity [5]: 40%
- Activity [7]: 80%
- remaining at 48 h [8]: 110%
- fold change (FC) [9]: 0.5
- Activity [10]: inactive
- fold change (FC) [11]: 0.1
- IC50 (ATR/ATRIP): > 10 µM
- remaining at 24 h [14]: 106%
- Activity [15]: 40%
- remaining at 6 h [17]: 102%
- fraction unbound [18]: 0.106
- Activity [19]: 60%
- Activity [21]: 60%
Compound: Nc1ncc(-c2ccc(S(=O)(=O)NCCCCCC(=O)NCCCC#Cc3cccc4c3CN(C3CCC(=O)NC3=O)C4=O)cc2)nc1C(=O)Nc1ccccc1 (stereo not drawn)
- Activity (HeLa [6]): inactive
- viability at 50 µM (HEK293): 77.1%
- Activity (MIA PaCa-2 [12]): inactive
- Activity (MIA PaCa-2 [13]): inactive
- Activity (HeLa [16]): inactive
- Activity (MIA PaCa-2 [20]): inactive
